Test results: patent US9085598B2, “Compounds targeting the cell invasion protein complex, their pharmaceutical compositions and methods of use thereof” (THE ROYAL INSTITUTE FOR THE ADVANCEMENT OF LEARNING/MCGILL …, priority 2011, dated 2015)
Read-outs that look alike come from different tables or passages of the source.

How the values were obtained:
MDA-231 cells = test: Inhibition of cell proliferation, MTT metabolic assay; format: cell-based; details: 96 hours continuous treatment, read-out: MDA231- IC50
Protocol: (§1) Exponentially growing DU145 or MDA-231 cells (1×10^3 cells) were seeded in 96-well plates. The final concentration of DMSO was less than 0.05%. After 96 hours, the cell survival was evaluated using 3-(4,5-dimethylthiazo-2-yl)-2,5-diphenyltetrazolium bromide (MTT) metabolic assay.

FAK = target: T1, FAK (Homo sapiens, UniProt Q05397); test: In vitro kinase activity (Kinase-Glo luminescence); format: biochemical; details: for inhibition at 1 µM: read-out: FAK inhibition (% at 1 μM); for FAK inhibition (% at 1 μM): Table 1
T1 construct: Human recombinant full-length kinases were incubated in kinase buffer
Protocol: Human recombinant full-length kinases were incubated in kinase buffer containing ATP and substrate (Poly Glu:Tyr) for 4 hours at room temperature with or without the presence of the compounds listed in Table 1 at various concentrations. Remaining ATP in solution was then quantified using the Kinase-Glo-Iuminescence™ kit (Promega).

DU145 cells = test: Inhibition of cell proliferation, MTT metabolic assay; format: cell-based
Protocol: as §1, with “assay. The inhibitory activity (IC50) of the compounds on MDA-231 and DU145 cell proliferation was determined. The results are presented in Table 1 for a representative number of compounds.” for “assay.”

[1] = Homo sapiens, MDA-MB-231, MDA-231 cell proliferation
[2] = Homo sapiens, DU-145, 96 hours continuous treatment

T1 sequence (Q05397 whole entry): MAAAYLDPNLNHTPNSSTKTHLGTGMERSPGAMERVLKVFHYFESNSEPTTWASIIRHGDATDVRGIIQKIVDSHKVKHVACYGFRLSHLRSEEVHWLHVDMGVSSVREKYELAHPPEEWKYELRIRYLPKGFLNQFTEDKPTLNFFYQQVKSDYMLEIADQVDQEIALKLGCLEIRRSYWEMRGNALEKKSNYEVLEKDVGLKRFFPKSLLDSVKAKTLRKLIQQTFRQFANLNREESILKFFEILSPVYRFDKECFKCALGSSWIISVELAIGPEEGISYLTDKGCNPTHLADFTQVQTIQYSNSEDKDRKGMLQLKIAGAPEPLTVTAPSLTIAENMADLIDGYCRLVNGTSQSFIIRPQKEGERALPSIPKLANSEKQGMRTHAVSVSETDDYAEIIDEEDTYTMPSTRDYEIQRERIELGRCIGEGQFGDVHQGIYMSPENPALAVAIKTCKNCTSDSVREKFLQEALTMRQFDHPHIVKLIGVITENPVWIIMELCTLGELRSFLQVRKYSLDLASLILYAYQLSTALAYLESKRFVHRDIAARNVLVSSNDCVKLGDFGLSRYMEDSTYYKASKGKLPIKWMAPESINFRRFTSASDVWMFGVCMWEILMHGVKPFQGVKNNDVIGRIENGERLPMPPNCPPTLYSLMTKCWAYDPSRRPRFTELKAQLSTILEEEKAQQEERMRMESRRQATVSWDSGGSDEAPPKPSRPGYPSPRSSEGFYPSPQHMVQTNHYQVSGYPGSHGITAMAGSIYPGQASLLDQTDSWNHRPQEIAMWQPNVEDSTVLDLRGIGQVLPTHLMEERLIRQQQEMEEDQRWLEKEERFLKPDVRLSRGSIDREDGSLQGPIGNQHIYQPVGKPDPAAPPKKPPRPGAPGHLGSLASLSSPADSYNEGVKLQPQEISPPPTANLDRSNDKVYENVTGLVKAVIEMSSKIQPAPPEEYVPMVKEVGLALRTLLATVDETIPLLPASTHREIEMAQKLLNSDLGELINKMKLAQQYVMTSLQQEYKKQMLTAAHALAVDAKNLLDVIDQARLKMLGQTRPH

O=C(N[C@@H]1OC(CO)[C@@H](O)C(O)C1O)c1ccc(-n2[se]c3ccccc3c2=O)cc1 (some centres unmarked) [Compound 22]
IC50 (MDA-231 cells; [1]): 2.7 µM | inhibition at 1 µM (FAK): 60%

(2,3,4,6-tetra-O-acetyl-β-D-glucopyranosyl)-4-(3-oxo-1,2-benzisoselenazol-2(3H)-yl)benzoate [Compound 10]
IC50 (MDA-231 cells; MDA-231 cell proliferation): 57.5 µM | IC50 (DU145 cells; 96 hours continuous treatment): 30.6 µM

CC(=O)OCC1O[C@@H](OC(=O)c2ccc(-n3[se]c4ccccc4c3=O)cc2)C(OC(C)=O)C(OC(C)=O)[C@@H]1O[C@@H]1OC(COC(C)=O)[C@H](OC(C)=O)C(OC(C)=O)C1OC(C)=O (some centres unmarked) [Compound 30]
IC50 (MDA-231 cells; [1]): 2.2 µM | inhibition at 1 µM (FAK): 94%

CC(=O)OCC1O[C@@H](Oc2ccc(-n3[se]c4ccccc4c3=O)cc2)C(OC(C)=O)C(OC(C)=O)[C@@H]1OC(C)=O (some centres unmarked) [Compound 25]
IC50 (MDA-231 cells; [1]): 11.4 µM | inhibition at 1 µM (FAK): 65%

O=C(Cn1[se]c2ccccc2c1=O)N[C@@H]1OC(CO)[C@@H](O)C(O)C1O (some centres unmarked) [Compound 20]
IC50 (MDA-231 cells; [1]): 550 µM | IC50 (DU145 cells; [2]): 395 µM | inhibition at 1 µM (FAK): 15%

O=C(CCCn1[se]c2ccccc2c1=O)N[C@@H]1OC(CO)[C@@H](O[C@@H]2OC(CO)[C@H](O)C(O)C2O)C(O)C1O (some centres unmarked) [Compound 16]
IC50 (DU145 cells; [2]): 39.7 µM

CC(=O)OCC1O[C@@H](NC(=O)c2ccc(-n3[se]c4ccccc4c3=O)cc2)C(OC(C)=O)C(OC(C)=O)[C@@H]1O[C@@H]1OC(COC(C)=O)[C@H](OC(C)=O)C(OC(C)=O)C1OC(C)=O (some centres unmarked) [Compound 27]
IC50 (MDA-231 cells; [1]): 6.8 µM | inhibition at 1 µM (FAK): 12%

O=c1c2ccccc2[se]n1[C@@H]1O[C@H](CO)[C@H](O)[C@H](O)[C@H]1O [Compound 3, 2-(1-deoxy-β-D-galactopyranosyl)-1,2-benzisoselenazol-3(2H)-one]
IC50 (MDA-231 cells; MDA-231 cell proliferation): 21 µM | IC50 (DU145 cells; 96 hours continuous treatment): 24.3 µM

CC(=O)OCC1O[C@@H](OC(=O)c2ccc(-n3[se]c4ccccc4c3=O)cc2)C(OC(C)=O)C(OC(C)=O)[C@@H]1OC(C)=O (some centres unmarked) [Compound 28]
IC50 (MDA-231 cells; [1]): 4.3 µM | inhibition at 1 µM (FAK): 85%

O=C(N[C@@H]1OC(CO)[C@H](O)C(O)C1O)c1ccc(-n2[se]c3ccccc3c2=O)cc1 (some centres unmarked) [Compound 23]
IC50 (MDA-231 cells; [1]): 12.7 µM | inhibition at 1 µM (FAK): 32%

O=c1c2ccccc2[se]n1[C@@H]1O[C@H](CO)[C@@H](O[C@@H]2O[C@H](CO)[C@H](O)[C@H](O)[C@H]2O)[C@H](O)[C@H]1O [Compound 5, 2-(1-deoxy-β-D-lactosyl)-1,2-benzisoselenazol-3(2H)-one]
IC50 (MDA-231 cells; MDA-231 cell proliferation): 18.1 µM | IC50 (DU145 cells; 96 hours continuous treatment): 24.6 µM

O=C(Cn1[se]c2ccccc2c1=O)N[C@@H]1O[C@H](CO)[C@@H](O)[C@H](O)[C@H]1O [Compound 7, 2-(3-oxo-1,2-benzisoselenazol-2(3H)-yl)-N-(1-deoxy-β-D-glucopyranosyl)-acetamide]
IC50 (MDA-231 cells; MDA-231 cell proliferation): 52 µM | IC50 (DU145 cells; 96 hours continuous treatment): 40.3 µM | FAK inhibition (% at 1 μM) (FAK): 8%

CC(=O)OC[C@H]1O[C@@H](n2[se]c3ccccc3c2=O)[C@H](OC(C)=O)[C@@H](OC(C)=O)[C@H]1OC(C)=O [Compound 2, 2-(1-deoxy-2,3,4,6-tetra-O-acetyl-β-D-galactopyranosyl)-1,2-benzisoselenazol-3(2H)-one]
IC50 (MDA-231 cells; MDA-231 cell proliferation): > 100 µM | IC50 (DU145 cells; 96 hours continuous treatment): 224 µM

CC(=O)OCC1O[C@@H](NC(=O)c2ccc(-n3[se]c4ccccc4c3=O)cc2)C(OC(C)=O)C(OC(C)=O)[C@H]1OC(C)=O (some centres unmarked) [Compound 24]
IC50 (MDA-231 cells; [1]): 15.3 µM | inhibition at 1 µM (FAK): 72%

CC(=O)OCC1O[C@@H](OC(=O)c2ccc(-n3[se]c4ccccc4c3=O)cc2)C(OC(C)=O)C(OC(C)=O)[C@H]1OC(C)=O (some centres unmarked) [Compound 29]
IC50 (MDA-231 cells; [1]): 3.7 µM | inhibition at 1 µM (FAK): 11%

CC(=O)OCC1O[C@@H](n2[se]c3ccccc3c2=O)C(OC(C)=O)C(OC(C)=O)[C@@H]1OC(C)=O (some centres unmarked) [Compound 19]
IC50 (MDA-231 cells; [1]): 5.2 µM | IC50 (DU145 cells; [2]): 11.9 µM

CC(=O)OC[C@H]1O[C@@H](NC(=O)Cn2[se]c3ccccc3c2=O)[C@H](OC(C)=O)[C@@H](OC(C)=O)[C@@H]1OC(C)=O [Compound 6, 2-(3-oxo-1,2-benzisoselenazol-2(3H)-yl)-N-(1-deoxy-2,3,4,6-tetra-O-acetyl-β-D-glucopyranosyl)-acetamide]
IC50 (MDA-231 cells; MDA-231 cell proliferation): 275 µM | IC50 (DU145 cells; 96 hours continuous treatment): 145 µM

O=C(CCCn1[se]c2ccccc2c1=O)N[C@@H]1OC(CO)[C@H](O)C(O)C1O (some centres unmarked) [Compound 14]
IC50 (MDA-231 cells; [1]): 54 µM | IC50 (DU145 cells; [2]): 66.4 µM | inhibition at 1 µM (FAK): 13%

2-(4-(β-D-glucopyranosyl)phenzyl)-1,2-benzisoselenazol-3(2H)-one [Compound 9]
IC50 (MDA-231 cells; MDA-231 cell proliferation): 380 µM | IC50 (DU145 cells; 96 hours continuous treatment): 277 µM | FAK inhibition (% at 1 μM) (FAK): 4%

O=c1c2ccccc2[se]n1CCO[C@@H]1OC(CO)[C@@H](O)C(O)C1O (some centres unmarked) [Compound 18]
IC50 (MDA-231 cells; [1]): > 100 µM | IC50 (DU145 cells; [2]): 125 µM

CC(=O)OCC1O[C@@H](NC(=O)c2ccc(-n3[se]c4ccccc4c3=O)cc2)C(OC(C)=O)C(OC(C)=O)[C@@H]1OC(C)=O (some centres unmarked) [Compound 21]
IC50 (MDA-231 cells; [1]): 5.5 µM | inhibition at 1 µM (FAK): 54%

O=c1c2ccccc2[se]n1-c1ccc(O[C@@H]2OC(CO)[C@@H](O)C(O)C2O)cc1 (some centres unmarked) [Compound 26]
IC50 (MDA-231 cells; [1]): 4.4 µM | inhibition at 1 µM (FAK): 15%

CC(=O)OCC1O[C@@H](OC(=O)Cn2[se]c3ccccc3c2=O)C(OC(C)=O)C(OC(C)=O)[C@@H]1OC(C)=O (some centres unmarked) [Compound 17]
IC50 (MDA-231 cells; [1]): 35 µM | IC50 (DU145 cells; [2]): 30.4 µM | inhibition at 1 µM (FAK): 51.9%

O=C(OCC1O[C@@H](OC(=O)c2ccc(-n3[se]c4ccccc4c3=O)cc2)C(OC(=O)c2ccccc2)C(OC(=O)c2ccccc2)[C@@H]1OC(=O)c1ccccc1)c1ccccc1 (some centres unmarked) [Compound 31]
IC50 (MDA-231 cells; [1]): 22.9 µM | inhibition at 1 µM (FAK): 8%

2-(4-(2,3,4,6-tetra-O-acetyl-β-D-glucopyranosyl)phenzyl)-1,2-benzisoselenazol-3(2H)-one [Compound 8]
IC50 (MDA-231 cells; MDA-231 cell proliferation): 24.6 µM | IC50 (DU145 cells; 96 hours continuous treatment): 33.7 µM | FAK inhibition (% at 1 μM) (FAK): 12%

CC(=O)OCC1O[C@@H](NC(=O)CCCn2[se]c3ccccc3c2=O)C(OC(C)=O)C(OC(C)=O)[C@@H]1O[C@@H]1OC(COC(C)=O)[C@H](OC(C)=O)C(OC(C)=O)C1OC(C)=O (some centres unmarked) [Compound 15]
IC50 (DU145 cells; [2]): 34.5 µM
